Laboratory results: patent publication US20210238187A1, “AZIRIDINE CONTAINING EPOTHILONE ANALOGS, METHODS OF SYNTHESIS, METHODS OF TREATMENT, AND DRUG CONJUGATES” (WILLIAM MARSH RICE UNIVERSITY, priority 2017, published 2021)
Where two headings read alike, the source gives them in different places.

Assays:
NCI/ADR-RES = assay: Cytotoxicity (GI50) assay, NCI/ADR-RES; assay type: cell-based, human; conditions: read-out: Cancer cell lines GI50, NCI/ADR-RES
SNB-75 = assay: Cytotoxicity (GI50) assay, SNB-75; assay type: cell-based, human
MES SA = assay: Cytotoxicity assay (CellTiter-Glo), MES SA; assay type: cell-based, human; conditions: MES-SA, read-out: Cancer cell lines IC50, MES SA
Tubulin = Tubulin assembly induction; assay type: biochemical
OVCAR-8 = assay: Cytotoxicity (GI50) assay, OVCAR-8; assay type: cell-based, human
HEK 293T = assay: Cytotoxicity assay (CellTiter-Glo), HEK 293T; assay type: cell-based; conditions: Homo sapiens, 72 h, read-out: Cancer cell lines IC50, HEK 293T
MCF-7 = assay: Cytotoxicity (GI50) assay, MCF-7; assay type: cell-based, human
MDA-MB-435 = assay: Cytotoxicity (GI50) assay, MDA-MB-435; assay type: cell-based, human
MES SA DX = assay: Cytotoxicity assay (CellTiter-Glo), MES SA DX; assay type: cell-based, human; conditions: Homo sapiens, read-out: Cancer cell lines IC50, MES SA DX
[1] = Homo sapiens, SNB-75, read-out: Cancer cell lines GI50, SNB-75
[2] = Homo sapiens, OVCAR-8, read-out: Cancer cell lines GI50, OVCAR-8
[3] = Homo sapiens, MCF7, read-out: Cancer cell lines GI50, MCF-7
[4] = Homo sapiens, MDA-MB-435, read-out: Cancer cell lines GI50, MDA-MB-435
[5] = Homo sapiens, NCI/ADR-RES, highly drug resistant human ovarian cancer cell line
[6] = SNB-75, human glioblastoma cell line, read-out: Cancer cell lines GI50, SNB-75
[7] = human uterine sarcoma cell line, 72 hours, CellTiter-Glo
[8] = OVCAR-8, human ovarian cancer cell line, read-out: Cancer cell lines GI50, OVCAR-8
[9] = MCF7, human breast cancer cell line, concentration required to decrease cell growth by 50%, read-out: Cancer cell lines GI50, MCF-7
[10] = MDA-MB-435, human melanoma cell line, read-out: Cancer cell lines GI50, MDA-MB-435
[11] = MES SA cell line with marked multidrug resistance, 72 hours, CellTiter-Glo

Row | Structure (SMILES) | GI50 (NCI/ADR-RES; Homo sapiens, NCI/ADR-RES) | GI50 (SNB-75; [1]) | IC50 (MES SA; Homo sapiens, 72 h) | EC50 (Tubulin; […]) | GI50 (OVCAR-8; [2]) | IC50 (HEK 293T) | GI50 (MCF-7; [3]) | GI50 (MDA-MB-435; [4]) | IC50 (MES SA DX; MES-SA, 72 h) | EC50 (Tubulin) | GI50 (NCI/ADR-RES; [5]) | GI50 (NCI/ADR-RES; highly drug resistant human ovarian cancer cell line) | GI50 (SNB-75; [6]) | IC50 (MES SA; [7]) | GI50 (OVCAR-8; [8]) | GI50 (MCF-7; [9]) | GI50 (MDA-MB-435; [10]) | IC50 (MES SA DX; [11])
1 | C/C(=C\c1csc(C)n1)[C@@H]1C[C@@H]2O[C@]2(C)CCC[C@H](C)[C@H](O)[C@@H](C)C(=O)C(C)(C)[C@@H](O)CC(=O)O1 [compound 2, epothilone B, reference compound] | 19 nM | 8 nM | 0.28 nM | […] | 15 nM | 0.26 nM | 9.2 nM | 7 nM | 1.16 nM | – | – | – | – | – | – | – | – | –
2 | CC1=CCC(C(C)=Cc2csc(C)n2)OC(=O)CC(O)C(C)(C)C(=O)C(C)C(O)C(C)CCC1 (stereo not drawn) [compound 4, epothilone D, reference compound] | 17 nM | – | 6.84 nM | – | 13 nM | 3.55 nM | 14 nM | – | 9.7 nM | 18000 nM | – | – | – | – | – | – | – | –
3 | C/C(=C\c1csc(C)n1)[C@@H]1C[C@@H]2N[C@@H]2CCC[C@H](C)[C@H](O)[C@@H](C)C(=O)C(C)(C)[C@@H](O)CC(=O)O1 [compound 8, 12,13-aziridinyl epothilone A, reference compound] | 38 nM | – | 1.14 nM | > 40000 nM | 5.5 nM | 0.95 nM | 2.5 nM | – | 16.9 nM | – | – | – | – | – | – | – | – | –
4 | C/C(=C\c1csc(C)n1)[C@@H]1C[C@H]2[C@@H](CCC[C@H](C)[C@H](O)[C@@H](C)C(=O)C(C)(C)[C@@H](O)CC(=O)O1)N2CCO (stereo partly drawn) [compound 9, (1S,3S,7S,10R,11S,12S,16R)-7,11-Dihydroxy-17-(2-hydroxyethyl)-8,8,10,12-tetramethyl-3-[(1E)-1-(2-methyl-1,3-thiazol-4-yl)prop-1-en-2-yl]-4-oxa-17-azabicyclo[14.1.0]heptadecane-5,9-dione, reference compound] | – | – | 8.01 nM | 1900 nM | 3 nM | 0.67 nM | 2 nM | – | 15.7 nM | – | – | – | – | – | – | – | – | –
5 | C/C(=C\c1coc(C)n1)[C@@H]1C[C@@H]2N(CCO)[C@]2(C)CCC[C@H](C)[C@H](O)[C@@H](C)C(=O)C(C)(C)[C@@H](O)CC(=O)O1 (stereo partly drawn) [compound 16, (1S,3S,7S,10R,11S,12S,16R)-7,11-Dihydroxy-17-(2-hydroxyethyl)-8,8,10,12,16-pentamethyl-3-[(1E)-1-(2-methyl-1,3-oxazol-4-yl)prop-1-en-2-yl]-4-oxa-17-azabicyclo[14.1.0]heptadecane-5,9-dione] | 190 nM | 19 nM | 2.71 nM | 38000 nM | 39 nM | 0.95 nM | 17 nM | 11 nM | 79.4 nM | – | – | – | – | – | – | – | – | –
6 | CSc1nc(/C=C(\C)[C@@H]2C[C@@H]3N(CCO)[C@]3(C)CCC[C@H](C)[C@H](O)[C@@H](C)C(=O)C(C)(C)[C@@H](O)CC(=O)O2)co1 (stereo partly drawn) [compound 17, (1S,3S,7S,10R,11S,12S,16R)-7,11-Dihydroxy-17-(2-hydroxyethyl)-8,8,10,12,16-pentamethyl-3-{(1E)-1-[2-(methylsulfanyl)-1,3-oxazol-4-yl]prop-1-en-2-yl}-4-oxa-17-azabicyclo[14.1.0]-heptadecane-5,9-dione] | – | 13 nM | 0.02 nM | 4000 ± 1000 nM | 25 nM | 0.05 nM | 7.5 nM | 3.5 nM | 1.11 nM | – | – | – | – | – | – | – | – | –
7 | CSc1nc(/C=C(\C)[C@@H]2C[C@@H]3N(CCOC(C)=O)[C@]3(C)CCC[C@H](C)[C@H](OC(C)=O)[C@@H](C)C(=O)C(C)(C)[C@@H](OC(C)=O)CC(=O)O2)co1 (stereo partly drawn) [compound 18, (1S,3S,7S,10R,11S,12S,16R)-17-(2-Acetoxyethyl)-8,8,10,12,16-pentamethyl-3-{(1E)-1-[2-(methylsulfanyl)-1,3-oxazol-4-yl]prop-1-en-2-yl}-5,9-dioxo-4-oxa-17-azabicyclo[14.1.0]-heptadecane-7,11-diyl diacetate] | 2300 nM | 290 nM | 116 nM | > 60000 nM | 290 nM | 17.9 nM | 1100 nM | 120 nM | 373 nM | – | – | – | – | – | – | – | – | –
8 | CSc1nc(/C=C(\C)[C@@H]2C[C@@H]3N(CCN=[N+]=[N-])[C@]3(C)CCC[C@H](C)[C@H](O)[C@@H](C)C(=O)C(C)(C)[C@@H](O)CC(=O)O2)cs1 (stereo partly drawn) [compound 34, (1S,3S,7S,10R,11S,12S,16R)-17-(2-Azidoethyl)-7,11-dihydroxy-8,8,10,12,16-pentamethyl-3-{(1E)-1-[2-(methylsulfanyl)-1,3-thiazol-4-yl]prop-1-en-2-yl}-4-oxa-17-azabicyclo[14.1.0]heptadecane-5,9-dione] | – | – | – | 5400 nM | – | – | – | – | – | – | 3.2 to 8.8 nM | 3.2 nM | 22 nM | 0.24 nM | 15 nM | 13 nM | 7.3 nM | 0.52 nM
9 | CSc1nc(/C=C(\C)[C@@H]2C[C@@H]3N(CCOC(C)=O)[C@]3(C)CCC[C@H](C)[C@H](O)[C@@H](C)C(=O)C(C)(C)[C@@H](O)CC(=O)O2)cs1 (stereo partly drawn) [compound 36, 2-[(1S,3S,7S,10R,11S,12S,16R)-7,11-Dihydroxy-8,8,10,12,16-pentamethyl-3-{(1E)-1-[2-(methylsulfanyl)-1,3-thiazol-4-yl]prop-1-en-2-yl}-5,9-dioxo-4-oxa-17-azabicyclo[14.1.0]-heptadec-17-yl]ethyl acetate] | – | 23 nM | 0.29 nM | 4000 nM | 18 nM | 0.07 nM | 5.5 nM | 3.5 nM | 0.86 nM | – | – | – | – | – | – | – | – | –
10 | CSc1nc(/C=C(\C)[C@@H]2C[C@@H]3N(CCN)[C@]3(C)CCC[C@H](C)[C@H](O)[C@@H](C)C(=O)C(C)(C)[C@@H](O)CC(=O)O2)cs1 (stereo partly drawn) [compound 37, (1S,3S,7S,10R,11S,12S,16R)-17-(2-Aminoethyl)-7,11-dihydroxy-8,8,10,12,16-pentamethyl-3-{(1E)-1-[2-(methylsulfanyl)-1,3-thiazol-4-yl]prop-1-en-2-yl}-4-oxa-17-azabicyclo[14.1.0]heptadecane-5,9-dione] | – | – | – | 6100 nM | – | – | – | – | – | – | 70 nM | – | 23 nM | 0.108 nM | 63 nM | 14 nM | 15 nM | 12 nM
11 | CSc1nc(/C=C(\C)[C@@H]2C[C@@H]3N(CC4CC4)[C@]3(C)CCC[C@H](C)[C@H](O)[C@@H](C)C(=O)C(C)(C)[C@@H](O)CC(=O)O2)cs1 (stereo partly drawn) [compound 38, (1S,3S,7S,10R,11S,12S,16R)-17-(Cyclopropylmethyl)-7,11-dihydroxy-8,8,10,12,16-pentamethyl-3-{(1E)-1-[2-(methylsulfanyl)-1,3-thiazol-4-yl]prop-1-en-2-yl}-4-oxa-17-azabicyclo-[14.1.0]heptadecane-5,9-dione] | – | – | – | 5100 nM | – | – | – | – | – | – | 18 nM | – | 16 nM | 0.056 nM | 15 nM | 18 nM | 9.5 nM | 1.26 nM
12 | C#CCCN1[C@H]2C[C@@H](/C(C)=C/c3csc(SC)n3)OC(=O)C[C@H](O)C(C)(C)C(=O)[C@H](C)[C@@H](O)[C@@H](C)CCC[C@]21C (stereo partly drawn) [compound 39, (1S,3S,7S,10R,11S,12S,16R)-17-(But-3-yn-1-yl)-7,11-dihydroxy-8,8,10,12,16-pentamethyl-3-{(1E)-1-[2-(methylsulfanyl)-1,3-thiazol-4-yl]prop-1-en-2-yl}-4-oxa-17-azabicyclo[14.1.0]heptadecane-5,9-dione] | – | 31 nM | 0.23 nM | 3500 nM | 18 nM | 0.09 nM | 30 nM | 3.5 nM | 0.45 nM | – | – | – | – | – | – | – | – | –
